Tests used:
mice = assay: Oral glucose tolerance test in mice drinking non-caloric artificial sweeteners (NAS); type: in vivo
Source text: (§1) C57Bl/6 WT adult male mice were randomly assigned (without blinding) to treatment groups and were given commercial artificial sweeteners (saccharin-, sucralose- or aspartame-based) or pure saccharin (Sigma Aldrich) in drinking water and fed a high-fat (HFD D12492, 60% Kcal from fat, Research Diets) or standard polysaccharide normal chow (NC) diet (Harlan-Teklad). Compared groups were always fed from the same batch of diet. For antibiotic treatment, mice were given a combination of ciprofloxacin (0.2 gl^−1) and metronidazole ([…]) or vancomycin (0.5 gl^−1) in their drinking water. All antibiotics were obtained from Sigma Aldrich. Adult male outbred Swiss-Webster mice (a widely used mouse strain in germ-free experiments) served as recipients for fecal transplants and were housed in sterile isolators (Park Biosciences). For fecal transplantation experiments, 200 mg of stool (from mouse pellets or human swabs) was resuspended in 5 ml of PBS under anaerobic conditions, vortexed for 3 minutes and allowed to settle by gravity for 2 minutes. Recipient mice were gavaged with 200 μl of the supernatant and maintained on standard NC diet and water throughout the experiment.
The following commercially available NAS were dissolved in mice drinking water to obtain a 10% solution: Sucrazit (5% saccharin, 95% glucose), Sucralite (5% Sucralose), Sweet'n Low Gold (4% Aspartame). 10% glucose (J.T. Baker) and 10% sucrose (Sigma Aldrich) solutions were used for controls. […] For experiments conducted with pure saccharin (Sigma Aldrich) a 0.1 mgml^−1 solution was used in order to meet with FDA defined ADI for saccharin in humans (5 mgkg^−1), according to the following calculation:
Mice were fasted for 6 hours during the light phase, with free access to water. In all groups of mice where the drinking regime was other than water, it was substituted for water for the period of the fasting and glucose or insulin tolerance test. Blood from the tail vein was used to measure glucose levels using a glucometer (Bayer) immediately before and 15, 30, 60, 90 and 120 minutes after oral feeding with 40 mg glucose (J.T. Baker) or intra-peritoneal injection with 0.1 Ukg^−1 Insulin (Biological Industries). Plasma fasting insulin levels were measured in sera collected immediately before the start of GTT using ELISA (Ultra Sensitive Mouse Insulin ELISA Kit, Crystal Chem).

[1] = tested on: microbiota of germ-free recipient mice
Source text: as §1
pooled fecal matter from naïve adult WT C57Bl/6 male mice was resuspended in 5 ml PBS in an anaerobic chamber (Coy Laboratory Products, 75% N2, 20% CO2, 5% H2), vortexed for 3 minutes and allowed to settle by gravity for 2 minutes. […] were added to a tube containing Chopped Meat Carbohydrate Broth, PR II (BD) and […] of a 5 mgml-1 saccharin solution or an equal volume of PBS. Every 3 days, 500 ml of culture were diluted to fresh medium containing saccharin or PBS. After 9 days, cultures were used for inoculation of germ-free mice.
Frozen fecal samples were processed for DNA isolation using the MoBio PowerSoil kit according to the manufacturer's instructions. 1 ng of the purified fecal DNA was used for PCR amplification and sequencing of the bacterial 16S rRNA gene. ˜365 bp Amplicons spanning the variable region 2 (V2) of the 16S rRNA gene were generated by using the following barcoded primers: Fwd 5′-[…]-3′ (SEQ ID NO: 3), Rev 5′-[…]-3′ (SEQ ID NO: 4). […] Reads were then processed using the QIIME (Quantitative Insights Into Microbial Ecology) analysis pipeline as described, version 1.8. Paired-end joined sequences were grouped into operational taxonomic units (OTUs) using the UCLUST algorithm and the greengenes database. Sequences with distance-based similarity of 97% or greater over median sequence length of 353 bp were assigned to the same OTU. Samples were grouped according to the treatment. Analysis was performed at each taxonomical level (Phylum-genus+OTU level) separately. For each taxon, G test was performed between the different groups. P-values were FDR corrected for multiple hypothesis testing.

[2] = cited from earlier work
[3] = GF recipients of D7 vs D1 microbiome from human responder
[4] = GF recipients of saccharin-enriched culture, day 6, level 2

## O=C1NS(=O)(=O)c2ccccc21 [saccharin]
mice; C57Bl/6 mice on HFD, 0.1 mgml^−1 pure saccharin in drinking water vs water, from 5 weeks, p<0.0002
  glucose tolerance (OGTT): impaired glucose tolerance
mice; HFD-fed outbred Swiss Webster mice, 0.1 mgml^−1 pure saccharin, 5 weeks, p<0.03
  glucose tolerance (OGTT): significant glucose intolerance
[1]; [3]
  decrease in Candidatus Arthromitus: ~10 fold
  relative increase of Bacteroides fragilis: 20 fold
  relative increase of Weissella ciboria: 20 fold
[1]; [4]
  Saccharin Enriched D6: p_Bacteroidetes: 0.611
  Saccharin Enriched D6: p_Firmicutes: 0.3649
  Saccharin Enriched D6: p_Tenericutes: 0.02291
[1]; GF recipients, day 6, level 3
  Saccharin Enriched D6: p_Bacteroidetes; c_Bacteroidia: 0.6108
  Saccharin Enriched D6: p_Firmicutes; c_Bacilli: 0.3122
  Saccharin Enriched D6: p_Firmicutes; c_Clostridia: 0.05266
  Saccharin Enriched D6: p_Proteobacteria; c_Gammaproteobacteria: 0.0001278
  Saccharin Enriched D6: p_Tenericutes; c_Mollicutes: 0.02291
[1]; GF recipients, day 6, level 4
  Saccharin Enriched D6: c_Bacilli; o_Lactobacillales: 0.3116
  Saccharin Enriched D6: c_Bacteroidia; o_Bacteroidales: 0.6108
  Saccharin Enriched D6: c_Clostridia; o_Clostridiales: 0.05266
  Saccharin Enriched D6: c_Gammaproteobacteria; o_Enterobacteriales: 0.0001248
  Saccharin Enriched D6: c_Mollicutes; o_Anaeroplasmatales: 0.02291
[1]; GF recipients, day 6, level 5
  Saccharin Enriched D6: o_Anaeroplasmatales; f_Anaeroplasmataceae: 0.02291
  Saccharin Enriched D6: o_Bacteroidales; f_Bacteroidaceae: 0.467
  Saccharin Enriched D6: o_Bacteroidales; f_Porphyromonadaceae: 0.1379
  Saccharin Enriched D6: o_Bacteroidales; f_S24-7: 7.066E−05
  Saccharin Enriched D6: o_Bacteroidales; f_[Odoribacteraceae]: 0.004319
  Saccharin Enriched D6: o_Clostridiales; f_: 0.04275
  Saccharin Enriched D6: o_Clostridiales; f_Clostridiaceae: 0.005131
  Saccharin Enriched D6: o_Clostridiales; f_Dehalobacteriaceae: 0.0008389
  Saccharin Enriched D6: o_Clostridiales; f_Ruminococcaceae: 0.003365
  Saccharin Enriched D6: o_Enterobacteriales; f_Enterobacteriaceae: 0.0001248
  Saccharin Enriched D6: o_Lactobacillales; f_Lactobacillaceae: 0.3087
  Saccharin Enriched D6: o_Lactobacillales; f_Streptococcaceae: 0.0009772
[1]; GF recipients, day 6, level 6
  Saccharin Enriched D6: f_Anaeroplasmataceae; g_Anaeroplasma: 0.02291
  Saccharin Enriched D6: f_Bacteroidaceae; g_Bacteroides: 0.467
  Saccharin Enriched D6: f_Clostridiaceae; g_Candidatus Arthromitus: 0.005047
  Saccharin Enriched D6: f_Clostridiaceae; g_Clostridium: 4.209E−05
  Saccharin Enriched D6: f_Dehalobacteriaceae; g_Dehalobacterium: 0.0008389
  Saccharin Enriched D6: f_Enterobacteriaceae; g_: 0.0001248
  Saccharin Enriched D6: f_Lachnospiraceae; g_[Ruminococcus]: 7.818E−05
  Saccharin Enriched D6: f_Lactobacillaceae; g_Lactobacillus: 0.3087
  Saccharin Enriched D6: f_Porphyromonadaceae; g_Parabacteroides: 0.1379
  Saccharin Enriched D6: f_Ruminococcaceae; g_: 0.003112
  Saccharin Enriched D6: f_S24-7; g_: 7.066E−05
  Saccharin Enriched D6: f_Streptococcaceae; g_Lactococcus: 0.0008509
  Saccharin Enriched D6: f_[Odoribacteraceae]; g_Odoribacter: 0.004319
  Saccharin Enriched D6: o_Clostridiales; f_; g_: 0.04275
[2]; humans
  FDA defined ADI (acceptable daily intake) in humans: 5 mgkg^−1
[2]; literature values
  reported toxic dose: 6.3 gkg^−1

— patent US20190022152A1, “MICROBIOME RESPONSE TO AGENTS” (Yeda Research and Development Co., Ltd., priority 2014, published 2019)
